Usually EC50 stands for the midpoint of the concentration-response curve. The term Emax denotes the size of the effect at its maximum, as opposed to the concentration needed.

Molecules are shown by their SMILES.

The target of assay [1] is T1, human mAChR M1 (Homo sapiens, UniProt P11229).
T1 construct: host or cells: CHO-K1 cells (ATCC), stably transfected using Lipofectamine2000
T1 sequence (P11229 1-460): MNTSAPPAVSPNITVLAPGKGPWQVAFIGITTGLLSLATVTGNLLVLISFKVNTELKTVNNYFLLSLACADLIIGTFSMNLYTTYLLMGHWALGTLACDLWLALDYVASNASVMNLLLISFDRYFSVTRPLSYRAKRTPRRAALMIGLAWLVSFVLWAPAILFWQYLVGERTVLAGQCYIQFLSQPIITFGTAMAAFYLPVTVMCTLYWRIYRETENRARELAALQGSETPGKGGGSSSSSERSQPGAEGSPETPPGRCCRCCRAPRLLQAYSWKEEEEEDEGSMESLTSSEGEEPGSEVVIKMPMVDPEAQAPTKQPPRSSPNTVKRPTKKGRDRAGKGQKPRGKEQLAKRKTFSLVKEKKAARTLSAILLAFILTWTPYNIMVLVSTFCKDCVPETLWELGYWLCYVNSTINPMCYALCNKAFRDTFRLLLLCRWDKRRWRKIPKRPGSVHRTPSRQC
The experiment in a line: mAChR M1 cell-based functional assay (calcium mobilization), PAM activity: increase in the EC20 acetylcholine response. Conditions: CHO-K1 cells expressing hM1; potentiation of EC20 acetylcholine response. An excerpt: (§1) Chinese hamster ovary (CHO-K1) cells stably expressing rat (r)M1 were purchased from the American Type Culture Collection and cultured according to their indicated protocol. CHO cells stably expressing human (h)M2, hM3, and hM5 were described previously (Levey, et al., 1991); hM1 and hM4 cDNAs were purchased from Missouri S&T cDNA Resource; rM4 cDNA was provided by T. L. Bonner (National Institutes of Health, Bethesda, MID). rM2 and rM3 were cloned from a rat brain cDNA library and sequence verified. hM1, rM2, rM3, hM4, and rM4 cDNAs were used to stably transfect CHO-K1 cells purchased from the American Type Culture Collection using Lipofectamine2000. To make stable rM2, hM2, rM3, hM4, and rM4 cell lines for use in calcium mobilization assays, these cells also were stably transfected with a chimeric G-protein (Gqi5) (provided by B. R. Conklin, University of California, San Francisco) using Lipofectamine 2000. rM1, hM1, rM3, hM3, rM5, and hM5 cells were grown in Ham's F-12 medium containing 10% heat-inactivated fetal bovine serum (FBS), 20 mM HEPES, and 50 μg/mL G418 sulfate. rM2-Gq15, hM2-Gqi5, and hM4-Gqi5 cells were grown in the same medium also containing 500 μg/mL Hygromycin B. Stable rM4-Gqi5 cells were grown in DMEM containing 10% heat-inactivated FBS, 20 mM HEPES, 400 μg/mL G418 sulfate, and 500 μg/mL Hygromycin B.
(§2) For high throughput measurement of agonist-evoked increases in intracellular calcium, CHO-K1 cells stably expressing muscarinic receptors were plated in growth medium lacking G418 and hygromycin at 15,000 cells/20 μL/well in Greiner 384-well black-walled, tissue culture (TC)-treated, clear-bottom plates (VWR). Cells were incubated overnight at 37° C. and 5% CO2. The next day, cells were washed using an ELX 405 (BioTek) with four washes (80 μL) of assay buffer then aspirated to 20 μL. Next, 20 μL of 16 μM Fluo-4/acetoxymethyl ester (Invitrogen, Carlsbad, Calif.) prepared as a 2.3 mM stock in DMSO and mixed in a 1:1 ratio with 10% (w/v) Pluronic F-127 and diluted in assay buffer was added to the wells and the cell plates were incubated for 50 min at 37° C. and 5% CO2. Dye was removed by washing with the ELX 405 (four 80 μL washes of assay buffer) then aspirated to 20 μL. Compound master plates were formatted in an 11 point CRC format (1:3 dilutions) in 100% DMSO with a starting concentration of 10 mM using the BRAVO liquid handler (Agilent). Test compound CRCs were then transferred to daughter plates (240 nL) using the Echo acoustic plate reformatter (Labcyte, Sunnyvale, Calif.) and then diluted into assay buffer (40 μL) to a 2× stock using a Thermo Fisher Combi (Thermo Fisher Scientific, Waltham, Mass.).
(§3) Calcium flux was measured using the Functional Drug Screening System (FDSS) 6000 (Hamamatsu Corporation, Tokyo, Japan) as an increase in the fluorescent static ratio. Compounds were applied to cells (20 μL, 2×) using the automated system of the FDSS 6000 at 4 s into the 300 s protocol and the data were collected at 1 Hz. At 144 s into the 300s protocol, 10 μL of an EC20 concentration of the muscarinic receptor agonist acetylcholine was added (5×), followed by the addition of 12 μL an EC80 concentration of acetylcholine at the 230 s time point (5×). Agonist activity was analyzed as a concentration-dependent increase in calcium mobilization upon compound addition. Emax values for agonist activity are expressed relative to the maximum for acetylcholine. Positive allosteric modulator activity was analyzed as a concentration-dependent increase in the EC20 acetylcholine response. Antagonist activity was analyzed as a concentration-dependent decrease in the EC80 acetylcholine response. Concentration-response curves were generated using a four-parameter logistical equation in XLfit curve fitting software (IDBS, Bridgewater, N.J.) for Excel (Microsoft, Redmond, Wash.) or Prism (GraphPad Software, Inc., San Diego, Calif.). […]
On the technique in general: A change in cytosolic calcium serves as a functional read-out for many receptors and channels.

Assay [2] deals with T1, human mAChR M1. The experiment in a line: mAChR M1 cell-based functional assay (calcium mobilization), agonist activity upon compound addition. The following applies: CHO-K1 cells expressing hM1; for Emax: relative to the maximum for acetylcholine; for EC50: compound alone, before acetylcholine addition.
From the text: as §1, §2, §3

Regarding `Cn1cc2c(-c3cc(F)c(Cn4cc(C(=O)N[C@H]5CCC[C@@H]5O)c5nccnc5c4=O)c(F)c3)cccc2n1` [Compound A68, 6-(2,6-difluoro-4-(2-methyl-2H-indazol-4-yl)benzyl)-N-((1S,2S)-2-hydroxycyclopentyl)-5-oxo-5,6-dihydropyrido[3,4-b]pyrazine-8-carboxamide], at human mAChR M1 [1], the EC50 is 1200 nM. Besides, the maximal effect (Emax) amounted to 74% on human mAChR M1 [1] and 8% on human mAChR M1 [2].
Regarding `Cn1cc2c(-c3cc(F)c(Cn4cc(C(=O)N[C@H]5CC[C@@H]5O)c5nccn5c4=O)c(F)c3)cccc2n1` [Compound B22, 6-(2,6-difluoro-4-(2-methyl-2H-indazol-4-yl)benzyl)-N-((1S,2S)-2-hydroxycyclobutyl)-5-oxo-5,6-dihydroimidazo[1,2-c]pyrimidine-8-carboxamide], at human mAChR M1 [1], the EC50 came to 1270 nM and the Emax is 59%. At human mAChR M1 [2], the half-maximal effective concentration (EC50) was > 10000 nM and the maximum response (Emax) is 19%.
As to `Cn1cc(-c2ccc(Cn3cc(C(=O)NC4CC5(COC5)C4)c4ncccc4c3=O)c(F)c2)cn1` [Compound A11, 6-(2-fluoro-4-(1-methyl-1H-pyrazol-4-yl)benzyl)-5-oxo-N-(2-oxaspiro[3.3]heptan-6-yl)-5,6-dihydro-1,6-naphthyridine-8-carboxamide], on human mAChR M1 [1], the EC50 is 6750 nM and the Emax worked out at 58%. At human mAChR M1 [2], the EC50 was > 10000 nM and the maximal effect (Emax) is < 5%.
As to `Cn1cc(-c2ccc(Cn3cc(C(=O)N[C@H]4CCCCC[C@@H]4O)c4nccn4c3=O)c(F)c2)cn1` [Compound B15, 6-(2-fluoro-4-(1-methyl-1H-pyrazol-4-yl)benzyl)-N-((1S,2S)-2-hydroxycycloheptyl)-5-oxo-5,6-dihydroimidazo[1,2-c]pyrimidine-8-carboxamide], at human mAChR M1 [1], the concentration giving a half-maximal response (EC50) is 27 nM and the Emax came to 70%. Also, on human mAChR M1 [2], the EC50 worked out at 2960 nM and the maximal effect (Emax) amounted to 64%.
As to `Cn1cc2c(-c3cc(F)c(Cn4cc(C(=O)N[C@H]5CCCC[C@@H]5O)c5ncccc5c4=O)c(F)c3)cccc2n1` [Compound A22, 6-(2,6-difluoro-4-(2-methyl-2H-indazol-4-yl)benzyl)-N-((1S,2S)-2-hydroxycyclohexyl)-5-oxo-5,6-dihydro-1,6-naphthyridine-8-carboxamide], on human mAChR M1 [1], the concentration for a half-maximal effect (EC50) amounted to 52 nM and the maximal response (Emax) is 67%. At human mAChR M1 [2], the EC50 was > 10000 nM and the Emax is < 5%.
Turning to `Cn1cc(-c2ccc(Cn3cc(C(=O)N[C@H]4CCCC[C@@H]4O)c4ncccc4c3=O)cn2)cn1` [Compound A16, N-((1S,2S)-2-hydroxycyclohexyl)-6-((6-(1-methyl-1H-pyrazol-4-yl)pyridin-3-yl)methyl)-5-oxo-5,6-dihydro-1,6-naphthyridine-8-carboxamide], the EC50 at human mAChR M1 [1] turned out to be 980 nM. The Emax at human mAChR M1 [1] was 68%; at human mAChR M1 [2], 27%.
In the case of `Cn1cc(-c2ccc(Cn3cc(C(=O)N[C@H]4CCCC[C@@H]4O)c4nccn4c3=O)c(F)c2)cn1` [Compound B6, 6-(2-fluoro-4-(1-methyl-1H-pyrazol-4-yl)benzyl)-N-((1S,2S)-2-hydroxycyclohexyl)-5-oxo-5,6-dihydroimidazo[1,2-c]pyrimidine-8-carboxamide], at human mAChR M1 [1], the EC50 stood at 37 nM and the maximal response (Emax) is 74%. Moreover, at human mAChR M1 [2], the concentration giving a half-maximal response (EC50) was 1540 nM and the maximum response (Emax) turned out to be 63%.
The like results for `Cn1cc2c(-c3cc(F)c(Cn4cc(C(=O)N[C@H]5CCC[C@@H]5O)c5nccn5c4=O)c(F)c3)cccc2n1` [Compound B21, 6-(2,6-difluoro-4-(2-methyl-2H-indazol-4-yl)benzyl)-N-((1S,2S)-2-hydroxycyclopentyl)-5-oxo-5,6-dihydroimidazo[1,2-c]pyrimidine-8-carboxamide] were, in that order, 900 nM, 59%, > 10000 nM and < 5%.
Taken in the same sequence, the figures for `O=C(N[C@H]1CCCC[C@@H]1O)c1cn(Cc2ccc(-n3cccn3)cc2)c(=O)c2nccnc12` [Compound A53, 6-(4-(1H-pyrazol-1-yl)benzyl)-N-((1S,2S)-2-hydroxycyclohexyl)-5-oxo-5,6-dihydropyrido[3,4-b]pyrazine-8-carboxamide] were 9640 nM, 48%, > 10000 nM and < 5%.
Taken in the same sequence, the figures for `Cn1cc2c(-c3cc(F)c(Cn4cc(C(=O)N[C@H]5CCC[C@@H]5O)c5sccc5c4=O)c(F)c3)cccc2n1` [Compound D32, 5-(2,6-difluoro-4-(2-methyl-2H-indazol-4-yl)benzyl)-N-((1S,2S)-2-hydroxycyclopentyl)-4-oxo-4,5-dihydrothieno[3,2-c]pyridine-7-carboxamide] were 7730 nM, 40%, > 10000 nM and < 5%.
Consider `Cc1cc(-c2cc(F)c(Cn3cc(C(=O)N[C@H]4CCOC[C@@H]4O)c4ncccc4c3=O)c(F)c2)ccn1` [Compound A36, 6-(2,6-difluoro-4-(2-methylpyridin-4-yl)benzyl)-N-((3R,4S)-3-hydroxytetrahydro-2H-pyran-4-yl)-5-oxo-5,6-dihydro-1,6-naphthyridine-8-carboxamide], for which, at human mAChR M1 [1], the EC50 worked out at 610 nM and the Emax turned out to be 65%. Moreover, on human mAChR M1 [2], the EC50 amounted to 1770 nM and the maximal effect (Emax) stood at 13%.
Turning to `Cc1nc(-c2ccc(Cn3cc(C(=O)N[C@H]4CCOC[C@@H]4O)c4ncccc4c3=O)cc2)co1` [Compound A19, N-((3R,4S)-3-hydroxytetrahydro-2H-pyran-4-yl)-6-(4-(2-methyloxazol-4-yl)benzyl)-5-oxo-5,6-dihydro-1,6-naphthyridine-8-carboxamide], at human mAChR M1 [1], the EC50 was determined as 2490 nM and the Emax was 67%. Further, the maximal effect (Emax) on human mAChR M1 [2] was 20%.
For `O=C(N[C@H]1CCCCC[C@@H]1O)c1cn(Cc2ccc(-c3cscn3)cc2)c(=O)c2cccnc12` [Compound A60, N-((1S,2S)-2-hydroxycycloheptyl)-5-oxo-6-(4-(thiazol-4-yl)benzyl)-5,6-dihydro-1,6-naphthyridine-8-carboxamide], on human mAChR M1 [1], the EC50 was determined as 610 nM and the Emax is 34%. Further, on human mAChR M1 [2], the 50% effective concentration (EC50) was > 10000 nM and the Emax is < 5%.
Turning to `O=C(N[C@H]1CCCC[C@@H]1O)c1cn(Cc2ccc(-n3cccn3)cc2)c(=O)c2cccnc12` [Compound A13, 6-(4-(1H-pyrazol-1-yl)benzyl)-N-((1S,2S)-2-hydroxycyclohexyl)-5-oxo-5,6-dihydro-1,6-naphthyridine-8-carboxamide], at human mAChR M1 [1], the concentration for a half-maximal effect (EC50) was found to be 1130 nM and the Emax turned out to be 71%. Besides, on human mAChR M1 [2], the EC50 turned out to be 8950 nM and the Emax is 21%.

These data come from patent US20220041606A1, “POSITIVE ALLOSTERIC MODULATORS OF THE MUSCARINIC ACETYLCHOLINE RECEPTOR M1” (Vanderbilt University, priority 2020, published 2022).
